According to patent US20250099490A1, “25-HYDROXYVITAMIN D AS A FEED ADDITIVE FOR AQUATIC ANIMALS” (DSM IP Assets B.V., priority 2022, published 2025):
Entries after “also recorded” stand apart in the source; their conditions may differ.

What was measured:
Assay type in all cases: in vivo
[1] = Study 1: rainbow trout 91-day feeding trial, vitamin D3 metabolites in plasma and muscle
Experimental: (§1) The first study evaluated dietary 25-hydroxyvitamin D3 (25-OH D3) compared to control basal diet fed fish. Fish with a mean starting weight of 58 g were fed diets based on the same standard composition representative of typical commercial salmonid feeds.
(§2) Test diets contained no supplemented 25-OH-D3 or either 80, 800 or 8000 μg/kg supplemented 25-OH-D3 (as fed basis). Hy·D (25-OH-D3) was supplemented on top of diets already containing cholecalciferol (D3) from both endogenous and supplemented sources. The measured levels of D3 in all experimental diets were in excess of established minimum dietary requirements for D3, (National Research Council (NRC), Nutrient Requirements of Fish and Shrimp. 2011, Washington, DC: The National Academies Press. 392.). In addition, the dietary level of D3 in all experimental diets met recommendations for optimal vitamin D3 in salmonid diets (Fish Nutrition. Fourth Edition 2021. Edited by Ronald W. Hardy and Sadasivam J. Kaushik. Academic Press, UK. 905 pp.), which stipulates a vitamin D3 supplementation of 2500-3500 international units (IU)/62.5-87.5 μg/kg). Diets were fed for 91 days following which, test fish reached a mean final weight of 332 g. Forty fish were housed in each tank and each treatment consisted of four replicate tanks.

[2] = Study 2: Atlantic salmon 90-day feeding trial, final body weight, FCR and PER; conditions: Atlantic salmon, 100, 200 or 400 μg/kg 25-OH-D3 in feed, 90 days, relative to control
Experimental: (§3) The second study evaluated dietary 25-hydroxyvitamin D3 (25-OH D3) compared to control basal diet fed fish.
(§4) Fish with a mean starting weight of 23.4 g were fed diets based on the same standard composition representative of typical commercial salmonid feeds. Test diets contained no supplemented 25-OH-D3 or either 100, 200 or 400 μg/kg supplemented 25-OH-D3 (as fed basis). Hy·D (25-OH-D3) was supplemented on top of diets already containing cholecalciferol (D3) from both endogenous and supplemented sources. The measured levels of D3 in all experimental diets were in excess of established minimum dietary requirements for D3, (National Research Council (NRC), Nutrient Requirements of Fish and Shrimp. 2011, Washington, DC: The National Academies Press. 392.). In addition, the dietary level of D3 in all experimental diets met recommendations for optimal vitamin D3 in salmonid diets (Fish Nutrition. Fourth Edition 2021. Edited by Ronald W. Hardy and Sadasivam J. Kaushik. Academic Press, UK. 905 pp.), which stipulates a vitamin D3 supplementation of 2500-3500 international units (IU)/62.5-87.5 μg/kg). Diets were fed for 90 days with test fish reaching a mean final weight of 73.0 g. Twenty fish were housed in each tank and each treatment consisted of five replicate tanks.

[3] = Study 1: rainbow trout 91-day feeding trial, growth performance (SGR) and feed conversion (FCR); conditions: rainbow trout, 80, 800 or 8000 μg/kg 25-OH-D3 in feed, 91 days
Experimental: as §1, §2

[4] = Rainbow trout 20-week feeding from first-feeding, feed efficiency and whole body composition; conditions: 80 μg/Kg 25-OH-D3 plus D3, 20 weeks
Experimental: The first study evaluated standard dietary levels of supplemented vitamin D3 alone or in combination with 80 μg/Kg 25-hydroxy vitamin D3dietary 25-hydroxyvitamin D3 (25-OH D3) in rainbow trout fed for 20 weeks from first-feeding.
Two commercial-like experimental diets were formulated by DSM Nutritional Products France and produced by SPAROS (Portugal). The basal diet was supplemented with either vitamin D3 only (VitD3 diet) or D3 in combination with 80 μg/Kg 25-hydroxy vitamin D3 (25-OH-D3 diet) (Table 1).
The parameters for growth performance, including feed efficiency (FE), were measured every 3 weeks and calculated as follow: Feed efficiency (FE)=(the mass for dead fish+final wet body mass-initial wet body mass)/dry feed intake. […].
Data are presented as means±standard deviation (SD). For growth parameters, the plasma and the qPCR results, data were analyzed by t-Student comparison of two means. Normality was assessed using the Shaprio-Wilk test, while homoscedasticity was determined using Levene's test. Data was analysed using the statistical R software/R Commander package. For all statistical analyses, the level of significance was set at P<0.05. […] Differentially expressed genes (DEG) are determined and hierarchical clustering is illustrated by a heatmap. […]

[5] = Study 2: Atlantic salmon 90-day feeding trial, viscerosomatic index, carcass yield and visceral fat; conditions: Atlantic salmon, 100, 200 or 400 μg/kg 25-OH-D3 in feed, 90 days, relative to control
Experimental: as §3, §4

[6] = rainbow trout, 80, 800 or 8000 μg/kg in standard trout feed

plasma levels of 1,25-OH-D3 (active D3 metabolite) ([1]; rainbow trout, 80, 800 or 8000 μg/kg dietary 25-OH-D3 from Hy·D, D3-replete diets): increased plasma levels | blood plasma 25-OH-D3 in response to increasing dietary 25-OH-D3 [1, 6]: increase in a linear relationship | muscle 25-OH-D3 in response to increasing dietary 25-OH-D3 [1, 6]: increase in a linear relationship | bioavailability to fish ([1]; rainbow trout, from changes in plasma and muscle vitamin D3 metabolites): highly bioavailable
Compound: C=C1CC[C@H](O)C/C1=C/C=C1\CCC[C@]2(C)[C@@H]([C@H](C)CCCC(C)(C)O)CC[C@@H]12 [25-OH-D3, 25-hydroxyvitamin D3]
feed conversion (FCR) [2]: improved | final body weight [2]: improved; also recorded: increased growth | protein efficiency ratio (PER) [2]: improved | specific growth rate (SGR) relative to the control ([3]; apparent from 31 days onwards): rapidly improved; also recorded: increased growth rate relative to the control | feed conversion ratio (FCR) relative to the control ([3]; from 15 days onwards): rapidly improved | feed efficiency (FE) ([4]; rainbow trout fry, vs 1.19 for comparison diet, p=0.0002): 1.29 | whole body protein ([4]; rainbow trout, 47.38 vs. 51.15, p=0.006): 51.15 | carcass yield (percentage carcass) [5]: improved carcass yields; also recorded: increased | percentage fat in the viscera [5]: reduced percentage fat being deposited in the viscera | viscerosomatic index (VSI) [5]: reduced VSI; also recorded: decreased VSI
